Results on 45 compounds are retold here after patent US9365553B2, “Heterocyclic compound and H1 receptor antagonist” (Aska Pharmaceutical Co., Ltd., priority 2010, dated 2016).

The term IC50 denotes the concentration that inhibits the measured activity by half.

One assay has as its target T1, rat H1 receptor (Rattus norvegicus, UniProt P31390).
T1 construct: An H1 receptor membrane preparation was prepared from rat cerebrum; from tissue; host or cells: rat cerebrum
Kind of assay: Rat H1 receptor affinity test (Test Example 1). Format: binding. The note with it: rat cerebrum membrane preparation, [3H]-pyrilamine 2 nmol/L. Here is the method:
An H1 receptor membrane preparation was prepared from rat cerebrum. […] To the resulting each sample, 50 μL of 8 nmol/L [^3H]-pyrilamine (manufactured by PerkinElmer) (final concentration: 2 nmol/L) was added and mixed. After the mixture was incubated at a room temperature for 30 minutes, the reaction solution was collected on a glass filter by a cell harvester (manufactured by Molecular Devices), and then the filter was washed with the incubation buffer. The glass filter was cut off and transferred in a vial. To the vial was added 5 mL of a scintillator (manufactured by National Diagnostics), and the mixture was shaken for not less than one hour. Thereafter, the radioactive concentration was measured by a liquid scintillation counter.

A further assay addresses T2, human H1 receptor (Homo sapiens, UniProt P35367).
T2 construct: purchased; host or cells: CHO cells
Kind of assay: Human H1 receptor affinity test (Test Example 2). Format: binding. Particulars: CHO cell membrane preparation expressing human H1 receptor, [3H]-pyrilamine 2 nmol/L. As to the method: Chinese hamster ovarian cells (CHO cells) having human H1 receptor forcibly express were purchased and used as an H1 receptor membrane preparation. […] To the resulting each sample, 50 μL of 8 nmol/L [^3H]-pyrilamine (final concentration: 2 nmol/L) was added and mixed. […] The glass filter was cut off and transferred in a vial. To the vial was added 5 mL of a scintillator (manufactured by National Diagnostics), and the mixture was shaken for not less than one hour. Thereafter, the radioactive concentration was measured by a liquid scintillation counter.

Assay [1] concerns histamine-induced skin reaction in rat. Kind of assay: Histamine-induced skin reaction test in rat (Test Example 3). Format: in vivo. The note with it: oral, histamine 10 μg/0.1 mL/site intradermal, pigment area, read-out: Skin reaction test in rat ID50. As to the method: […] One hour after the administration, a 1% Evans Blue physiological saline solution (Tokyo Chemical Industry Co., Ltd.) was administered into the caudal vein in a dose of 5 mL/kg, and immediately histamine 10 μg/0.1 mL/site (manufactured by Wako Pure Chemical Industries, Ltd.) was intradermally administered into the dorsum. Thirty minutes after the administration, the rat was anesthetized with diethyl ether and then euthanized by cervical dislocation. The skin was ablated, and the major axis and minor axis of a spot of the pigment exuded into the skin were measured to calculate the area of the pigment.

The test system of assay [2] is histamine-induced skin reaction in mouse. The assay can be described thus: Skin reaction test in mouse (Test Example 4). In kind it is in vivo. The note with it: oral, histamine 3 μg/50 μL/site intradermal, pigment area, read-out: Skin reaction test in mouse ID50. As to the method: Each mouse was sheared the day before test and fasted overnight. A low, middle or high dose of each test compound suspended in a 0.5% (W/V) CMC-Na aqueous solution was orally administered to the mouse. One hour after the administration, a 1% Evans Blue physiological saline solution (Tokyo Chemical Industry Co., Ltd.) was administered into the caudal vein in a dose of 10 mL/kg, and immediately histamine 3 μg/50 μL/site was intradermally administered into the dorsum. Thirty minutes after the administration, the mouse was anesthetized with diethyl ether and then euthanized by cervical dislocation. The skin was ablated, and the major axis and minor axis of a spot of the pigment exuded into the skin were measured to calculate the area of the pigment.

Assay [3] relates to mouse IgE-dependent ear edema model. The assay can be described thus: Inhibitory effects on mouse IgE-dependent ear edema model (Test Example 8).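 Further: 5 or 10 times the mouse skin-reaction ID50 per dose.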 In kind it is in vivo. Particulars: oral twice a day, dose a multiple of mouse ID50 (Dose column of Table E). Here is the method:
To each mouse, 0.25 mL of an anti-DNP-IgE antibody (manufactured by SIGMA-ALDRICH) was intravenously administered for passive sensitization. On the day following the administration, an antigen (DNFB solution; manufactured by Wako Pure Chemical Industries, Ltd.) was applied on the right ear to induce dermatitis (ear swelling). One hour, 24 hours and 7 days after the application of the antigen, the thickness of the right ear was measured by a thickness measuring apparatus (dial thickness gauge). […] The thickness of the right ear before the sensitization was measured beforehand; the inhibition rates of the swelling in immediate phase, late phase, and very late phase were calculated.

T1 sequence (P31390 whole entry): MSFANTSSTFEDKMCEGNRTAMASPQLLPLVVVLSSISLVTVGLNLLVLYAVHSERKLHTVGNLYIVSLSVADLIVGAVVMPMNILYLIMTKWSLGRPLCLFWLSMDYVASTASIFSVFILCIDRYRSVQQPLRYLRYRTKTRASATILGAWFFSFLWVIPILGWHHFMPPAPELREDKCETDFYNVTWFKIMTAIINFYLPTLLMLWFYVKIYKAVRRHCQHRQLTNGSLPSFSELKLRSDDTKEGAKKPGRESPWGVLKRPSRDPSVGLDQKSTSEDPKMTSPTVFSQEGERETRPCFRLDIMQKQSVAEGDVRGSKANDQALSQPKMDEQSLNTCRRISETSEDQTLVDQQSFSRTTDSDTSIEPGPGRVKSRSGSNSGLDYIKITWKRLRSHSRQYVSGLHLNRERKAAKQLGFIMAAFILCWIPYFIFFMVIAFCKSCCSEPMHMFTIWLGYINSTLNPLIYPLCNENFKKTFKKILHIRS
T2 sequence (P35367 whole entry): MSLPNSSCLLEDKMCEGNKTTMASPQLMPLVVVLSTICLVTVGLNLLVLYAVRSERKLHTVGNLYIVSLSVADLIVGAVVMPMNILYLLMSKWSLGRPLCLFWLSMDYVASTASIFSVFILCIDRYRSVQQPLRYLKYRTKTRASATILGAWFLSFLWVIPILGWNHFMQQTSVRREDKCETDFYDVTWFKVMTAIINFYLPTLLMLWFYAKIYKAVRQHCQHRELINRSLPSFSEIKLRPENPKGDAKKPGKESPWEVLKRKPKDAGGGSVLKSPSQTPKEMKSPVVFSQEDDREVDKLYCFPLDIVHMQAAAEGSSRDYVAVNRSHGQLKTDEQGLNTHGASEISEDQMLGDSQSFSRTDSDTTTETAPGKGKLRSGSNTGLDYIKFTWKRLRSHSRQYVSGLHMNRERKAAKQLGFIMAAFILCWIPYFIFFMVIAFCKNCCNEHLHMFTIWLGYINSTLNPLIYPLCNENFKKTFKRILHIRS

As to `O=C(O)COCCN1CCN(C(c2ccccc2)c2ccc(Cl)cc2)CC1` (stereo not drawn) [Cetirizine], the IC50 against rat H1 receptor came to 88 nM.
As to `O=C(O)c1ccc(CN2CCC(OC(c3ccccc3)c3ccccc3)CC2)o1` [Example 1, 5-(4-Benzhydryloxypiperidin-1-ylmethyl)furan-2-carboxylic acid], the results for the IC50 at rat H1 receptor and against human H1 receptor were 81 nM and 14 nM, respectively.
As for `O=C(O)c1coc(CN2CCC(OC(c3ccccc3)c3ccccc3)CC2)n1` [Example 3], the IC50 at rat H1 receptor worked out at 55 nM. In other words, the double-digit nanomolar range.
Still for that read-out and setting: next, `O=C(O)c1csc(CN2CCC(OC(c3ccccc3)c3ccccc3)CC2)n1` [Example 4]: 39 nM.
Take `O=C(O)c1cc(F)cc(CN2CCC(OC(c3ccccc3)c3ccccc3)CC2)c1` [Example 6]: the IC50 on rat H1 receptor came out at 38 nM; against human H1 receptor, 11 nM. The ED50 in assay [1] was 0.6 mg/kg.
With `COc1ccc(C(OC2CCN(Cc3cccc(C(=O)O)n3)CC2)c2ccccc2)cc1` (stereo not drawn) [Example 17], at rat H1 receptor, it took 110 nM to reach half-maximal inhibition (IC50). This lies in the sub-micromolar range.
On rat H1 receptor, `O=C(O)c1cccc(CN2CCC(OC(c3ccccc3)c3ccc(F)cc3)CC2)n1` (stereo not drawn) [Example 18] showed an IC50 of 89 nM. Further, the ED50 in assay [1] was determined as 0.2 mg/kg.
For the compound `O=C(O)c1cccc(CN2CCC(OC(c3ccccc3)c3ccccc3F)CC2)n1` (stereo not drawn) [Example 20], the IC50 on rat H1 receptor amounted to 69 nM; at human H1 receptor, 29 nM.
As to `O=C(O)c1cccc(CN2CCN(C(c3ccccc3)c3ccc(Cl)cc3)CC2)n1` (stereo not drawn) [Example 23], the IC50 against rat H1 receptor stood at 36 nM; against human H1 receptor, 30 nM. Further, the ED50 in assay [1] turned out to be 1.8 mg/kg.
`O=C(O)c1cccc(CN2CCC(OC(c3ccccc3)c3ccccc3)C2)n1` (stereo not drawn) [Example 24]: the results for the IC50 against rat H1 receptor and against human H1 receptor were 8.2 nM and 9.2 nM, respectively.
Take `O=C(O)c1cccc(CN2CCC(OC(c3ccccc3)c3cccc(F)c3)CC2)n1` (stereo not drawn) [Example 25]: the IC50 against rat H1 receptor came out at 12 nM; on human H1 receptor, 22 nM.
`O=C(O)c1cccc(CN2CCC(OC(c3ccccc3)c3cccc(C(F)(F)F)c3)CC2)n1` (stereo not drawn) [Example 26] registered an IC50 against rat H1 receptor of 83 nM.
On the same count and under the same terms, next, `O=C(O)c1cc(CN2CCC(OC(c3ccccc3)c3ccccc3)CC2)ccn1` [Example 29]: 63 nM.
On to `O=C(O)c1cncc(CN2CCC(OC(c3ccccc3)c3ccccc3)CC2)c1` [Example 30], for which the figures for the IC50 at rat H1 receptor and on human H1 receptor were 42 nM and 15 nM, respectively.
For `O=C(O)c1ccc(CN2CCC(OC(c3ccccc3)c3ccccc3)CC2)[nH]1` [Example 35, 5-(4-Benzhydryloxypiperidin-1-ylmethyl)-1H-pyrrole-2-carboxylic acid] the same measures were 61 nM and 15 nM.
Take `O=C(O)c1nc(CN2CCC(OC(c3ccccc3)c3ccccc3)CC2)cs1` [Example 36]: the IC50 at rat H1 receptor was 99 nM.
As to `O=C(O)c1ccnc(CN2CCC(OC(c3ccccc3)c3cccc(F)c3)CC2)c1` (stereo not drawn) [Example 40], the IC50 at rat H1 receptor is 1.2 nM; against human H1 receptor, 26 nM.
The corresponding values for `Cc1ccc(C(OC2CCN(Cc3cc(C(=O)O)ccn3)CC2)c2ccccc2)cc1` (stereo not drawn) [Example 41] are 19 nM and 18 nM.
In the case of `O=C(O)c1ccnc(CN2CCC(OC(c3ccccc3)c3ccc(Cl)cc3)CC2)c1` (stereo not drawn) [Example 42], the results for the IC50 at rat H1 receptor and at human H1 receptor were 24 nM and 19 nM, respectively. Further, the ED50 in assay [1] stood at 1.8 mg/kg.
Consider `O=C(O)c1ccc(CN2CCC(OC(c3ccccc3)c3ccc(Cl)cc3)CC2)o1` (stereo not drawn) [Example 43], for which the IC50 came out at 18 nM at rat H1 receptor and 12 nM on human H1 receptor.
For the compound `O=C(O)c1nc(CN2CCC(OC(c3ccccc3)c3ccc(Cl)cc3)CC2)cs1` (stereo not drawn) [Example 44], at rat H1 receptor, the IC50 was found to be 20 nM.
On the same count and under the same terms, the value for `Cc1ccc(C(OC2CCN(Cc3ccc(C(=O)O)o3)CC2)c2ccccc2)cc1` (stereo not drawn) [Example 46] was 68 nM.
Consider `O=C(O)c1cccc(CN2CCC(OC(c3ccc(F)cc3)c3cccc(F)c3)CC2)n1` (stereo not drawn) [Example 49], for which the IC50 against rat H1 receptor came to 89 nM; against human H1 receptor, 17 nM. Further, the ED50 in assay [1] was determined as 1.5 mg/kg.
On human H1 receptor, `O=C(O)c1ccnc(CN2CCC(OC(c3ccccc3)c3ccc(F)c(F)c3)CC2)c1` (stereo not drawn) [Example 51] registered an IC50 of 4.9 nM. Further, the ED50 in assay [2] stood at 0.07 mg/kg.
For `O=C(O)c1ccnc(CN2CCC(OC(c3ccc(F)cc3)c3cccc(F)c3)CC2)c1` (stereo not drawn) [Example 52] the same measures were 6.7 nM and 0.1 mg/kg.
On human H1 receptor, `COc1ccc(CN2CCC(OC(c3ccccc3)c3ccc(F)c(F)c3)CC2)nc1C(=O)O` (stereo not drawn) [Example 53] came in with an IC50 of 14 nM. In other words, the double-digit nanomolar range.
`O=C(O)c1cccc(CN2CCC(=C3c4ccc(Cl)cc4CCc4cccnc43)CC2)n1` [Example 68] displayed an IC50 against rat H1 receptor of 40 nM.
For the compound `O=C(O)c1ccnc(CN2CCC(=C3c4ccccc4C=Cc4ccccc43)CC2)c1` [Example 72], the IC50 at human H1 receptor came out at 8.9 nM. Moreover, the ED50 in assay [2] stood at 0.06 mg/kg.
Turning to `O=C(O)c1cccc(CN2CCC(=C3c4ccccc4CCc4ccccc43)CC2)c1` [Example 74], in assay [1], the ED50 amounted to 2.1 mg/kg.
Turning to `O=C(O)c1cccc(CN2CCC(=C3c4ccccc4CCc4ccccc43)CC2)n1` [Example 75], the IC50 against rat H1 receptor was 67 nM; against human H1 receptor it was 23 nM. In assay [1], the ED50 came to 1.2 mg/kg.
Regarding `O=C(O)c1cccc(CN2CCC(=C3c4ccccc4COc4ccccc43)CC2)n1` [Example 80], on human H1 receptor, the IC50 was found to be 17 nM.
Still for that read-out and setting: next, `O=C(O)c1cnn(CN2CCC(OC(c3ccccc3)c3ccccc3)CC2)c1` [Example 84]: 17 nM; `O=C(O)c1ccc(CN2CCC(OC(c3ccccc3)c3ccc(F)cc3)CC2)cn1` (stereo not drawn) [Example 85]: 22 nM; `O=C(O)c1cccc(CN2CCC(OC(c3ccc(F)cc3)c3ccccc3F)CC2)n1` (stereo not drawn) [Example 86]: 16 nM.
The compound `O=C(O)c1ccnc(CN2CCC(OC(c3ccc(F)cc3)c3ccccc3F)CC2)c1` (stereo not drawn) [Example 87] came in with an IC50 on human H1 receptor of 21 nM. Further, the ED50 in assay [2] came out at 0.06 mg/kg. Moreover, the “Inhibitory effects in each allergic reaction phase: Immediate phase” value in assay [3] (mouse ear swelling 1 hour after antigen) is “++ (++ Inhibitory rate 45 to 20%)”. Besides, in assay [3] (mouse ear swelling 24 hours after antigen), the “Inhibitory effects in each allergic reaction phase: Late phase” value is given as “++ (++ Inhibitory rate 45 to 20%)”. Besides, the “Inhibitory effects in each allergic reaction phase: Very late phase” value in assay [3] (mouse ear swelling 7 days after antigen) is on record as “+ (+ Inhibitory rate 19 to 10%)”.
Compound `O=C(O)c1cncc(CN2CCC(OC(c3ccccc3)c3ccc(F)cc3)CC2)c1` (stereo not drawn) [Example 88] gave an IC50 on human H1 receptor of 21 nM. In other words, the double-digit nanomolar range.
On the same count and under the same terms, next, `O=C(O)c1cc(CN2CCC(OC(c3ccccc3)c3ccc(F)cc3)CC2)cs1` (stereo not drawn) [Example 89]: 7.5 nM; `O=C(O)c1cccc(CN2CCC(OC(c3ccccc3)c3cccc(Cl)c3)CC2)n1` (stereo not drawn) [Example 116]: 17 nM; `O=C(O)c1ccnc(CN2CCC(OC(c3ccccc3)c3cccc(Cl)c3)CC2)c1` (stereo not drawn) [Example 117]: 24 nM.
Same read-out and setting: the value for `O=C(O)c1ccnc(CN2CCC(OC(c3ccc(F)cc3)c3ccc(F)cc3)CC2)c1` [Example 124] was 8.4 nM; that for `O=C(O)c1cccc(CN2CC[C@@H](OC(c3ccccc3)c3ccccc3)C2)n1` [Example 128, 6-((R)-3-Benzhydryloxypyrrolidin-1-ylmethyl)pyridine-2-carboxylic acid] was 6.1 nM.
On the same count and under the same terms, the value for `O=C(O)c1ccnc(CN2CC[C@H](OC(c3ccccc3)c3ccccc3)C2)c1` [Example 131, 2-((S)-3-Benzhydryloxypyrrolidin-1-ylmethyl)isonicotinic acid] was 15 nM; that for `O=C(O)c1cccc(CN2CCN(C(c3ccccc3)c3ccc(F)cc3)CC2)n1` (stereo not drawn) [Example 143] was 24 nM.
Compound `O=C(O)c1ccnc(CN2CC[C@H](OC(c3ccc(F)cc3)c3ccc(F)cc3)C2)c1` [Example 154] gave an IC50 at human H1 receptor of 13 nM.
Turning to `O=C(O)c1cccc(CN2CC[C@H](OC(c3ccc(F)cc3)c3ccc(F)cc3)C2)n1` [Example 155], the IC50 against human H1 receptor was determined as 10 nM. The IC50 values of the last two compounds are within 1.5-fold of each other.
